Results reported in patent US10004701B2, “Methods and compositions for treating infection” (UNIVERSITY OF ROCHESTER, priority 2012, dated 2018).
Structures can show the parent of a compound that is named as a salt. Where two headings read alike, the source gives them in different places.

Key:
Experiment in all cases: AK assay 384-well format, Prestwick library screening
[1] = test system: S. aureus strain USA300-0114; format: cell-based, Staphylococcus aureus; conditions: 50 μM final drug concentration; for fold induction at 50 µM: Staphylococcus aureus, USA300, 3 h
E. cloacae = format: cell-based, Enterobacter cloacae; conditions: 50 μM final drug concentration; for fold induction at 50 µM: Enterobacter cloacae, 3 h
[2] = test system: A. baumannii strain 98-37-09; format: cell-based, Acinetobacter baumannii; conditions: 50 μM final drug concentration; for fold induction at 50 µM: Acinetobacter baumannii, 983709, 3 h
E. faecium = format: cell-based, Enterococcus faecium; conditions: 50 μM final drug concentration; for fold induction at 50 µM: Enterococcus faecium, 3 h
K. pneumoniae = format: cell-based, Klebsiella pneumoniae; conditions: 50 μM final drug concentration; for fold induction at 50 µM: Klebsiella pneumoniae, 3 h
E. coli = format: cell-based, Escherichia coli; conditions: 50 μM final drug concentration; for fold induction at 50 µM: Escherichia coli, 3 h
P. aeruginosa = format: cell-based, Pseudomonas aeruginosa; conditions: 50 μM final drug concentration; for fold induction at 50 µM: Pseudomonas aeruginosa, 3 h
[3] = 384-well format, cutoff for positive-scoring molecules 3-fold increase
[4] = 384-well format, cutoff for positive-scoring molecules 3-fold increase, read-out: AK-based Prestwick Library Screening Results, S. aureus (increase in extracellular AK activity)
[5] = 384-well format, cutoff for positive-scoring molecules 3-fold increase, read-out: AK-based Prestwick Library Screening Results, E. cloacae (increase in extracellular AK activity)
[6] = 384-well format, cutoff for positive-scoring molecules 3-fold increase, read-out: AK-based Prestwick Library Screening Results, A. baumannii (increase in extracellular AK activity)
[7] = 384-well format, cutoff for positive-scoring molecules 3-fold increase, read-out: AK-based Prestwick Library Screening Results, E. faecium (increase in extracellular AK activity)
[8] = 384-well format, cutoff for positive-scoring molecules 3-fold increase, read-out: AK-based Prestwick Library Screening Results, K. pneumoniae (increase in extracellular AK activity)
[9] = 384-well format, cutoff for positive-scoring molecules 3-fold increase, read-out: AK-based Prestwick Library Screening Results, E. coli (increase in extracellular AK activity)
[10] = 384-well format, cutoff for positive-scoring molecules 3-fold increase, read-out: AK-based Prestwick Library Screening Results, P. aeruginosa (increase in extracellular AK activity)

Question: With Alverine citrate salt as the compound, how does the “AK-based Prestwick Library Screening Results, S. aureus (increase in extracellular AK activity)” value [1, 3] read?
Answer: 0.7

Question: And the “AK-based Prestwick Library Screening Results, E. cloacae (increase in extracellular AK activity)” value (E. cloacae; [3])?
Answer: 0.9

Question: And the “AK-based Prestwick Library Screening Results, A. baumannii (increase in extracellular AK activity)” value [2, 3]?
Answer: 0.9

Question: What about the “AK-based Prestwick Library Screening Results, E. faecium (increase in extracellular AK activity)” value (E. faecium; [3]) of the same compound?
Answer: 0.9

Question: What about the “AK-based Prestwick Library Screening Results, K. pneumoniae (increase in extracellular AK activity)” value (K. pneumoniae; [3]) of the same compound?
Answer: 0.7

Question: What about the “AK-based Prestwick Library Screening Results, E. coli (increase in extracellular AK activity)” value (E. coli; [3]) of the same compound?
Answer: 0.9

Question: What about the “AK-based Prestwick Library Screening Results, P. aeruginosa (increase in extracellular AK activity)” value (P. aeruginosa; [3]) of the same compound?
Answer: 0.8

Question: With CC1CCc2cc(F)cc3c(=O)c(C(=O)O)cn1c23 (stereo not shown) [Flumequine] as the compound, how does the fold induction at 50 µM ([1]; planktonic S. aureus, 384-well, […], read-out: AK-based Prestwick Library Screening Results: S. aureus (increase in extracellular AK activity)) read?
Answer: 2.2

Question: And the fold induction at 50 µM (E. cloacae; planktonic E. cloacae, 384-well, […], read-out: AK-based Prestwick Library Screening Results: E. cloacae (increase in extracellular AK activity))?
Answer: 24.4

Question: What about the fold induction at 50 µM ([2]; planktonic A. baumannii, 384-well, […], read-out: AK-based Prestwick Library Screening Results: A. baumannii (increase in extracellular AK activity)) of the same compound?
Answer: 2.9

Question: And the fold induction at 50 µM (E. faecium; planktonic E. faecium, 384-well, […], read-out: AK-based Prestwick Library Screening Results: E. faecium (increase in extracellular AK activity))?
Answer: 1.5

Question: What about the fold induction at 50 µM (K. pneumoniae; planktonic K. pneumoniae, 384-well, […], read-out: AK-based Prestwick Library Screening Results: K. pneumoniae (increase in extracellular AK activity)) of the same compound?
Answer: 2.2

Question: What about the fold induction at 50 µM (E. coli; planktonic E. coli, 384-well, […], read-out: AK-based Prestwick Library Screening Results: E. coli (increase in extracellular AK activity)) of the same compound?
Answer: 13.6

Question: And the fold induction at 50 µM (P. aeruginosa; planktonic P. aeruginosa, 384-well, […], read-out: AK-based Prestwick Library Screening Results: P. aeruginosa (increase in extracellular AK activity))?
Answer: 1.4

Question: How did the fold induction at 50 µM [1, 4] turn out when NNC(=O)c1ccncc1 [Isoniazid] was run?
Answer: 0.7

Question: And the fold induction at 50 µM (E. cloacae; [5])?
Answer: 0.6

Question: And the fold induction at 50 µM [2, 6]?
Answer: 0.6

Question: And the fold induction at 50 µM (E. faecium; [7])?
Answer: 1

Question: And the fold induction at 50 µM (K. pneumoniae; [8])?
Answer: 0.6

Question: And the fold induction at 50 µM (E. coli; [9])?
Answer: 0.6

Question: What about the fold induction at 50 µM (P. aeruginosa; [10]) of the same compound?
Answer: 0.6

Question: Which results are given for COc1nc(C)nc(Cl)c1N=C1NCCN1 [Moxonidine]?
Answer: fold induction at 50 µM ([1]; planktonic S. aureus, positive cutoff 3-fold increase, read-out: AK-based Prestwick library screening result, S. aureus (fold increase in extracellular AK activity)): 1; fold induction at 50 µM (E. cloacae; planktonic E. cloacae, positive cutoff 3-fold increase, read-out: AK-based Prestwick library screening result, E. cloacae (fold increase in extracellular AK activity)): 1.8; fold induction at 50 µM ([2]; planktonic A. baumannii, positive cutoff 3-fold increase, read-out: AK-based Prestwick library screening result, A. baumannii (fold increase in extracellular AK activity)): 1.1; fold induction at 50 µM (E. faecium; planktonic E. faecium, positive cutoff 3-fold increase, read-out: AK-based Prestwick library screening result, E. faecium (fold increase in extracellular AK activity)): 0.9; fold induction at 50 µM (K. pneumoniae; planktonic K. pneumoniae, positive cutoff 3-fold increase, read-out: AK-based Prestwick library screening result, K. pneumoniae (fold increase in extracellular AK activity)): 1.1; fold induction at 50 µM (E. coli; planktonic E. coli, positive cutoff 3-fold increase, read-out: AK-based Prestwick library screening result, E. coli (fold increase in extracellular AK activity)): 1.1; fold induction at 50 µM (P. aeruginosa; planktonic P. aeruginosa, positive cutoff 3-fold increase, read-out: AK-based Prestwick library screening result, P. aeruginosa (fold increase in extracellular AK activity)): 1.1

Question: With O=C(NCCO[N+](=O)[O-])c1cccnc1 [Nicorandil] as the compound, how does the fold induction at 50 µM [1, 4] read?
Answer: 0.6

Question: What about the fold induction at 50 µM (E. cloacae; [5]) of the same compound?
Answer: 0.9

Question: And the fold induction at 50 µM [2, 6]?
Answer: 0.8

Question: What about the fold induction at 50 µM (E. faecium; [7]) of the same compound?
Answer: 0.9

Question: And the fold induction at 50 µM (K. pneumoniae; [8])?
Answer: 0.8

Question: And the fold induction at 50 µM (E. coli; [9])?
Answer: 0.9

Question: What about the fold induction at 50 µM (P. aeruginosa; [10]) of the same compound?
Answer: 0.7

Question: What does the source list for CC[C@H]1CN2CCc3cc(OC)c(OC)cc3[C@@H]2C[C@@H]1C[C@H]1NCCc2cc(OC)c(OC)cc21 [Emetine dihydrochloride]?
Answer: fold induction at 50 µM ([1]; planktonic S. aureus, cutoff for positive-scoring molecules 3-fold increase, read-out: AK-based Prestwick Library Screening Results, S. aureus (increase in extracellular AK activity)): 0.5; fold induction at 50 µM (E. cloacae; planktonic E. cloacae, cutoff for positive-scoring molecules 3-fold increase, read-out: AK-based Prestwick Library Screening Results, E. cloacae (increase in extracellular AK activity)): 0.5; fold induction at 50 µM ([2]; planktonic A. baumannii, cutoff for positive-scoring molecules 3-fold increase, read-out: AK-based Prestwick Library Screening Results, A. baumannii (increase in extracellular AK activity)): 0.5; fold induction at 50 µM (E. faecium; planktonic E. faecium, cutoff for positive-scoring molecules 3-fold increase, read-out: AK-based Prestwick Library Screening Results, E. faecium (increase in extracellular AK activity)): 0.9; fold induction at 50 µM (K. pneumoniae; planktonic K. pneumoniae, cutoff for positive-scoring molecules 3-fold increase, read-out: AK-based Prestwick Library Screening Results, K. pneumoniae (increase in extracellular AK activity)): 0.6; fold induction at 50 µM (E. coli; planktonic E. coli, cutoff for positive-scoring molecules 3-fold increase, read-out: AK-based Prestwick Library Screening Results, E. coli (increase in extracellular AK activity)): 0.5; fold induction at 50 µM (P. aeruginosa; planktonic P. aeruginosa, cutoff for positive-scoring molecules 3-fold increase, read-out: AK-based Prestwick Library Screening Results, P. aeruginosa (increase in extracellular AK activity)): 0.5

Question: With CCC1=C[C@@H]2CN3CCc4c([nH]c5ccccc45)[C@@](C(=O)OC)(C2)[C@@H]13 [Catharanthine] as the compound, how does the “AK-based Prestwick Library Screening Results, S. aureus (increase in extracellular AK activity)” value ([1]; 384-well format, […]) read?
Answer: 0.8

Question: And the “AK-based Prestwick Library Screening Results, E. cloacae (increase in extracellular AK activity)” value (E. cloacae; 384-well format, […])?
Answer: 1.0

Question: What about the “AK-based Prestwick Library Screening Results, A. baumannii (increase in extracellular AK activity)” value ([2]; 384-well format, […]) of the same compound?
Answer: 0.8

Question: What about the “AK-based Prestwick Library Screening Results, E. faecium (increase in extracellular AK activity)” value (E. faecium; 384-well format, […]) of the same compound?
Answer: 1.0

Question: And the “AK-based Prestwick Library Screening Results, K. pneumoniae (increase in extracellular AK activity)” value (K. pneumoniae; 384-well format, […])?
Answer: 0.8

Question: And the “AK-based Prestwick Library Screening Results, E. coli (increase in extracellular AK activity)” value (E. coli; 384-well format, […])?
Answer: 1.0

Question: What about the “AK-based Prestwick Library Screening Results, P. aeruginosa (increase in extracellular AK activity)” value (P. aeruginosa; 384-well format, […]) of the same compound?
Answer: 0.7

Question: Which results are given for CC(=O)CC(c1ccc([N+](=O)[O-])cc1)c1c(O)c2ccccc2oc1=O (stereo not shown) [Acenocoumarol]?
Answer: fold induction at 50 µM [1, 4]: 0.8; fold induction at 50 µM (E. cloacae; [5]): 0.9; fold induction at 50 µM [2, 6]: 0.8; fold induction at 50 µM (E. faecium; [7]): 1; fold induction at 50 µM (K. pneumoniae; [8]): 0.7; fold induction at 50 µM (E. coli; [9]): 0.9; fold induction at 50 µM (P. aeruginosa; [10]): 0.9

Question: Which fold induction at 50 µM ([1]; cutoff for positive-scoring molecules 3-fold increase, read-out: AK-based Prestwick Library Screening Results, S. aureus (fold increase in extracellular AK activity)) does the source give for CCCC(C(=O)OCCN(CC)CC)(c1ccccc1)c1ccccc1 [Proadifen hydrochloride] here?
Answer: 0.8

Question: What about the fold induction at 50 µM (E. cloacae; cutoff for positive-scoring molecules 3-fold increase, read-out: AK-based Prestwick Library Screening Results, E. cloacae (fold increase in extracellular AK activity)) of the same compound?
Answer: 1.7

Question: What about the fold induction at 50 µM ([2]; cutoff for positive-scoring molecules 3-fold increase, read-out: AK-based Prestwick Library Screening Results, A. baumannii (fold increase in extracellular AK activity)) of the same compound?
Answer: 1.1

Question: And the fold induction at 50 µM (E. faecium; cutoff for positive-scoring molecules 3-fold increase, read-out: AK-based Prestwick Library Screening Results, E. faecium (fold increase in extracellular AK activity))?
Answer: 1.1

Question: What about the fold induction at 50 µM (K. pneumoniae; cutoff for positive-scoring molecules 3-fold increase, read-out: AK-based Prestwick Library Screening Results, K. pneumoniae (fold increase in extracellular AK activity)) of the same compound?
Answer: 0.8

Question: What about the fold induction at 50 µM (E. coli; cutoff for positive-scoring molecules 3-fold increase, read-out: AK-based Prestwick Library Screening Results, E. coli (fold increase in extracellular AK activity)) of the same compound?
Answer: 1.2

Question: What about the fold induction at 50 µM (P. aeruginosa; cutoff for positive-scoring molecules 3-fold increase, read-out: AK-based Prestwick Library Screening Results, P. aeruginosa (fold increase in extracellular AK activity)) of the same compound?
Answer: 1.1

Question: What does the source list for CO[C@@]1(NC(=O)C2SC(=C(C(N)=O)C(=O)O)S2)C(=O)N2C(C(=O)O)=C(CSc3nnnn3C)CS[C@@H]21 (stereo partly shown) [Cefotetan]?
Answer: fold induction at 50 µM ([1]; planktonic, cutoff for positive 3-fold increase, read-out: AK-based Prestwick Library Screening Results, S. aureus (fold increase in extracellular AK activity)): 2.5; fold induction at 50 µM (E. cloacae; planktonic, cutoff for positive 3-fold increase, read-out: AK-based Prestwick Library Screening Results, E. cloacae (fold increase in extracellular AK activity)): 25.3; fold induction at 50 µM ([2]; planktonic, cutoff for positive 3-fold increase, read-out: AK-based Prestwick Library Screening Results, A. baumannii (fold increase in extracellular AK activity)): 2; fold induction at 50 µM (E. faecium; planktonic, cutoff for positive 3-fold increase, read-out: AK-based Prestwick Library Screening Results, E. faecium (fold increase in extracellular AK activity)): 1.2; fold induction at 50 µM (K. pneumoniae; planktonic, cutoff for positive 3-fold increase, read-out: AK-based Prestwick Library Screening Results, K. pneumoniae (fold increase in extracellular AK activity)): 8.4; fold induction at 50 µM (E. coli; planktonic, cutoff for positive 3-fold increase, read-out: AK-based Prestwick Library Screening Results, E. coli (fold increase in extracellular AK activity)): 22.1; fold induction at 50 µM (P. aeruginosa; planktonic, cutoff for positive 3-fold increase, read-out: AK-based Prestwick Library Screening Results, P. aeruginosa (fold increase in extracellular AK activity)): 1.2
